Measurements from patent US8710233B2 (Gruenenthal GmbH, priority 2005, dated 2014).
pIC50, pKi: −log10 of the molar value.

Experiments:
[1] = biological target: VR1/TRPV1 receptor (Homo sapiens, UniProt Q8NER1); test: IC50 (human) after pH stimulus; format: cell-based; settings: table 4
[2] = tested on: capsaicin induced hypothermie; test: Hypothermie assay in the mouse (capsaicin induced hypothermie); format: in vivo; settings: mouse, read-out: inhibition hypothermie (n = 5); for inhibition in vivo at 0.1 mg/kg: 0.1 mg/kg body weight po
[3] = biological target: T1, vanilloid receptor (VR1) (Homo sapiens, UniProt Q8NER1); test: FLIPR Ca2+ influx assay on CHO K1 cells transfected with the VR1 gene (pharmacological method II); format: cell-based; settings: table 4; capsaicin; read-out: Ki (human) Cap.
T1 construct: expressed in transfected cells; host or cells: CHO K1 cells (ECACC), stably transfected
T1 sequence (Q8NER1 whole entry): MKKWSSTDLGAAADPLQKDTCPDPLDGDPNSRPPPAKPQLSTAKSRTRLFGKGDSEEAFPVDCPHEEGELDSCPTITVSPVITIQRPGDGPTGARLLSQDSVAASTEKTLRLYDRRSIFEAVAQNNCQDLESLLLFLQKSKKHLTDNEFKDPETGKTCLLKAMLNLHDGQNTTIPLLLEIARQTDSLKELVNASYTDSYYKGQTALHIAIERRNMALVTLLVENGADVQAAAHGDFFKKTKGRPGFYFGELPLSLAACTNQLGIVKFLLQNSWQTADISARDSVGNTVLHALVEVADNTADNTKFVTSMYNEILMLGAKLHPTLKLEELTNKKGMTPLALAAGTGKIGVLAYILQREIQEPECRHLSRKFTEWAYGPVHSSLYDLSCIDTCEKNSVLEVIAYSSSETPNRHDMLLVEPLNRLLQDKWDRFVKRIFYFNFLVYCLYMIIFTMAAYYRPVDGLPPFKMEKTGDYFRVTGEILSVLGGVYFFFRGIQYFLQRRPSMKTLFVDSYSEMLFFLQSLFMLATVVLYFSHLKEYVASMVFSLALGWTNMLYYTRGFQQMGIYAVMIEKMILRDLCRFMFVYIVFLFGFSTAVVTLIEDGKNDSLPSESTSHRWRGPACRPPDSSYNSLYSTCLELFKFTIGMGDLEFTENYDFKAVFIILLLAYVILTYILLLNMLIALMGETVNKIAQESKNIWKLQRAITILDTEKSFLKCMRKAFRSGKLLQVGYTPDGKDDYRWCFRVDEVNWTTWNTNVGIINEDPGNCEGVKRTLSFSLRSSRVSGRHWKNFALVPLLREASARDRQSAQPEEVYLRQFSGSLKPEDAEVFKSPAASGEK

VR1/TRPV1 receptor, sequence (Q8NER1 whole entry): as above

| SMILES | pIC50 [1] | inhibition in vivo at 0.3 mg/kg ([2]; 0.3 mg/kg body weight po) [%] | pKi [3] | inhibition in vivo at 0.1 mg/kg [2] [%] |
| --- | --- | --- | --- | --- |
| Cc1ccc(Cl)cc1Nc1nc(C(F)(F)F)ccc1CNC(=O)C(C)c1ccc(NS(C)(=O)=O)c(F)c1 (stereo not drawn) [Example 136, N-[2-(5-chloro-2-methyl-phenylamino)-6-trifluoromethyl-pyridin-3-ylmethyl]-2-(3-fluoro-4-methylsulfonamido-phenyl)-propionamide] | 6.85 | 43 | 7.85 | – |
| CC(C(=O)NCc1ccc(C(F)(F)F)nc1OCCC(C)(C)C)c1ccc(NS(C)(=O)=O)c(F)c1 (stereo not drawn) [Example 125] | 7.62 | – | 9.05 | 5 |
| CC(C(=O)NCc1ccc(C(C)(C)C)nc1OC1CCCC1)c1ccc(NS(C)(=O)=O)c(F)c1 (stereo not drawn) [Example 234, N-(6-tert-butyl-2-cyclopentyloxy-pyridin-3-ylmethyl)-2-(3-fluoro-4-methylsulfonamido-phenyl)-propionamide] | 7.07 | – | 8.82 | 19 |
